The values that follow are results of earlier work, collected in US11198893B2, “Method for producing omega 3 and omega 6 unsaturated fatty acid oxides” (Bizen Chemical Co., Ltd., priority 2016, dated 2021).

Data set [1] deals with obese mice.
Data set [2] has as its system liver glucose synthesis.

For `CC/C=C\C[C@H](O)/C=C/C=C\C/C=C\C/C=C\C/C=C\CCC(=O)O` [17S-HDHA], in data set [1], the “glucose tolerance and insulin resistance” value was “improve glucose tolerance and insulin resistance”; the inflammatory cytokine expression entry is recorded as “suppresses inflammatory cytokine expression”.

Consider `CC/C=C\C[C@H](O)/C=C/C=C\C=C\[C@@H](O)C/C=C\C/C=C\CCC(=O)O` [protectin DX], for which, in data set [2], the glycometabolism result is recorded as “action to promote glycometabolism” and the liver glucose synthesis result is “action to suppress liver glucose synthesis”.
